Results on one cell line are retold here after the supplement of paper PMC10307832.

Holding throughout (assay): relative viability (nuclei count vs DMSO), 5 days (fraction); higher = more cells survive
Compound in experiment [1]: CC(=O)Nc1cccc(-n2c(=O)n(C3CC3)c(=O)c3c(Nc4ccc(I)cc4F)n(C)c(=O)c(C)c32)c1 [Trametinib] + Nc1ncn([C@H]2C[C@H](O)[C@@H](CO)O2)c(=O)n1 [Decitabine] (partner 2 µM)
In a few lines: (§1)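 Relative viability was taken as the ratio of nuclei in treated wells to nuclei in vehicle wells. Lung cancer cell lines in 1536-well plates received compounds by pin tool one day after seeding, either one drug alone or a fixed anchor-drug dose plus five library-drug doses (not always all listed) in √10 steps. Nuclei were counted on 4× images after 5 days of treatment, and values are medians of duplicate plates.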

Compound in experiment [2]: CC(=O)Nc1cccc(-n2c(=O)n(C3CC3)c(=O)c3c(Nc4ccc(I)cc4F)n(C)c(=O)c(C)c32)c1 [Trametinib] + O=C(CCCCCCC(=O)Nc1ccccc1)NO [Vorinostat] (partner 1 µM)
In a few lines:
as §1

Compound in experiment [3]: CC(=O)Nc1cccc(-n2c(=O)n(C3CC3)c(=O)c3c(Nc4ccc(I)cc4F)n(C)c(=O)c(C)c32)c1 [Trametinib] + Nc1nc2[nH]cc(CCc3ccc(C(=O)N[C@@H](CCC(=O)O)C(=O)O)cc3)c2c(=O)[nH]1 [Pemetrexed] (partner 0.2 µM)
Put shortly: as §1

Compound in experiment [4]: CC(=O)Nc1cccc(-n2c(=O)n(C3CC3)c(=O)c3c(Nc4ccc(I)cc4F)n(C)c(=O)c(C)c32)c1 [Trametinib] + Cc1nc(NC(=O)N2CCC[C@H]2C(N)=O)sc1-c1ccnc(C(C)(C)C(F)(F)F)c1 [Alpelisib] (partner 2 µM)
Put shortly: as §1

For UMC-11, the relative viability worked out at 0.548 in experiment [1] (first compound 0.0025 µM); 0.674 in experiment [1] (first compound 0.007906 µM); 0.471 in experiment [1] (first compound 0.25 µM); 0.327 in experiment [2] (first compound 0.0025 µM); 0.352 in experiment [2] (first compound 0.007906 µM); 0.313 in experiment [2] (first compound 0.07906 µM). In addition, the relative viability in experiment [2] (first compound 0.25 µM) stood at 0.294; in experiment [3] (first compound 0.0025 µM) it was 0.804; in experiment [3] (first compound 0.007906 µM), 0.741; in experiment [3] (first compound 0.07906 µM), 0.719; in experiment [3] (first compound 0.25 µM) it was 0.701; in experiment [4] (first compound 0.0025 µM), 0.904. Further, the relative viability in experiment [4] (first compound 0.007906 µM) came out at 0.981; in experiment [4] (first compound 0.025 µM), 0.956; in experiment [4] (first compound 0.07906 µM), 0.876; in experiment [4] (first compound 0.25 µM), 0.945.
